Key:
Format in all cases: in vivo
several fungal species = assay: Leaf disc or leaf segment tests, summary over several fungal species; conditions: foliar; leaf disc and leaf segment tests; read-out: concentration from which fungal growth is reduced
Procedure: (§1) Leaf disks or leaf segments of various plant species were cut from plants grown in the greenhouse. The cut leaf discs or segments were placed in multiwell plates (24-well format) onto water agar. The leaf disks were sprayed with a test solution before (preventative) or after (curative) inoculation. Compounds to be tested were prepared as water solutions (max. 10 mg/ml) which were diluted to the appropriate concentration with 0.025% Tween20 just before spraying. The inoculated leaf discs or segments were incubated under defined conditions (temperature, relative humidity, light, etc.) according to the respective test system. A single evaluation of disease level was carried out 3-9 days days after inoculation, depending on the pathosystem. Percent disease control relative to the untreated check leaf discs or segments was then calculated.
Wheat leaf segments cv. Kanzler were placed on agar in multiwell plates (24-well format) and sprayed with the formulated test compound diluted in water. […] The inoculated leaf segments were incubated at 19 °C and 75% rh under a light regime of 12 h light/12 h darkness in a climate cabinet and the activity of a compound was assessed as percent disease control compared to untreated leaf when an appropriate level of disease damage appeared in untreated check leaf segments (7-9 days after application). […]

[1] = test system: Puccinia recondita f. sp. tritici; assay: Puccinia recondita f. sp. tritici / wheat / leaf disc preventative (brown rust); conditions: for % reduction fungal growth: wheat, preventive
Procedure: as §1
Puccinia recondita f. sp. tritici/Wheat/Leaf Disc Preventative (Brown Rust)
Wheat leaf segments cv. Kanzler were placed on agar in multiwell plates (24-well format) and sprayed with the formulated test compound diluted in water. The leaf disks were inoculated with a spore suspension of the fungus 1 day after application. The inoculated leaf segments were incubated at 19 °C and 75% rh under a light regime of 12 h light/12 h darkness in a climate cabinet and the activity of a compound was assessed as percent disease control compared to untreated leaf when an appropriate level of disease damage appeared in untreated check leaf segments (7-9 days after application).

[2] = test system: Puccinia recondita f. sp. tritici; assay: Leaf painting assay in wheat seedling, Puccinia recondita preventive
Procedure: Wheat seedlings of the variety Riband (for Zymoseptoria tritici trials) or variety Arina (for Puccinia recondite trials) were grown in the glasshouse until 14d after seeding. At this time, such seedlings usually have a first leaf fully emerged (designated L1), a second leaf fully emerged (L2) and a third leaf (L3) that is partially emerged and in the process of development. Using a permanent pen, two dots were applied on the second leaf such as to generate three segments of roughly equal size: Segment A (at the base), segment B (middle part) and segment C (tip of the leaf). A stock solution of the compound of Formula (I) was produced in water and of benzovindiflupyr in DMSO at a concentration of 10,000 ppm. […] The diluted compound was applied to the middle segment of L2 using a conventional cotton stick; the cotton stick was soaked in the diluted compound and rubbed several times on the adaxial leaf surface between the two marks. One day later, the complete plant was inoculated with a fungal spore suspension using a paint brush. The spore suspension was applied until before run-off.
For infection with Puccinia recondita (preventive): The test plants were inoculated by spraying them with a spore suspension one day after application (spore suspension at 80,000 spores per ml in water supplemented with Tween20 at 0.1%). After an incubation period of 1 day at 20 °C and 95% rh, the inoculated test plants were kept at 20 °C and 60% rh in a greenhouse.
The three segments of the leaf were evaluated individually.

CC(=O)NC1C(OCC(OC2OC(CO)C(O)C(O)C2O)C2OC(OC3C(O)C(CO)OC(OC4(CO)OC(C(O)CO)C(O)C4OC4OC(CO)C(O)C(O)C4O)C3O)C(O)C(O)C2OC2OC(C(O)CO)C(O)C(O)C2OC2OCC(OC(N)=O)C(O)C2O)OC(CO)C(O)C1O (stereo not shown) [compound of Formula (I)]
minimal effective concentration (several fungal species): ≥ 22 µg/mL
preventive activity to control Puccinia recondita [1]: preventive (application of compound followed by infection with pathogen)
% reduction fungal growth ([1]; 0.80 ppm): 0%
% reduction fungal growth ([1]; 2.50 ppm): 0%
% reduction fungal growth ([1]; 7.40 ppm): 0%
% reduction fungal growth ([1]; 22.00 ppm): 0%
% reduction fungal growth ([1]; 67.00 ppm): 45%
% reduction fungal growth ([1]; 200.00 ppm): 95%
% reduction fungal growth ([2]; Experiment 1, 200.00 ppm, base segment, preventive): 0%
% reduction fungal growth ([2]; Experiment 1, 200.00 ppm, middle segment (treated), preventive): 48%
% reduction fungal growth ([2]; Experiment 1, 200.00 ppm, tip segment, preventive): 31%
% reduction fungal growth ([2]; Experiment 2, 200.00 ppm, base segment, preventive): 10%
% reduction fungal growth ([2]; Experiment 2, 200.00 ppm, middle segment (treated), preventive): 79%
% reduction fungal growth ([2]; Experiment 2, 200.00 ppm, tip segment, preventive): 38%
% reduction fungal growth ([2]; Experiment 3, 400.00 ppm, base segment, preventive): 16%
% reduction fungal growth ([2]; Experiment 3, 400.00 ppm, middle segment (treated), preventive): 98%
% reduction fungal growth ([2]; Experiment 3, 400.00 ppm, tip segment, preventive): 99%
% reduction fungal growth ([2]; Experiment 4, 500.00 ppm, base segment, preventive): 0%
% reduction fungal growth ([2]; Experiment 4, 500.00 ppm, middle segment (treated), preventive): 69%
% reduction fungal growth ([2]; Experiment 4, 500.00 ppm, tip segment, preventive): 82%
activity against growth of fungus ([2]; leaf painting, preventive): active against growth
control on treated and above treated area ([2]; middle segment treated): provided control on the treated area (middle segment) as well as the above treated area (tip)
